From patent US4554272A, “Substituted quinazolino-1,4-benzodiazepin-6,9-diones and their preparation” (Merck & Co., Inc., priority 1985, dated 1985)

Assays:
[1] = target: T1, CCK receptor (brain, cerebral cortex) (Cavia porcellus, UniProt H0VZC5); assay: CCK Receptor Binding (brain); parameters: species or system guinea pig (male Hartley); settings: guinea pig cerebral cortex; 125I-CCK-33, pH 6.5, 25° C., 2 hours
T1 construct: The cerebral cortex is dissected and used as a receptor source; from tissue; host or cells: cerebral cortex of male Hartley guinea pig, washed membrane suspension
T1 sequence (H0VZC5 1-426): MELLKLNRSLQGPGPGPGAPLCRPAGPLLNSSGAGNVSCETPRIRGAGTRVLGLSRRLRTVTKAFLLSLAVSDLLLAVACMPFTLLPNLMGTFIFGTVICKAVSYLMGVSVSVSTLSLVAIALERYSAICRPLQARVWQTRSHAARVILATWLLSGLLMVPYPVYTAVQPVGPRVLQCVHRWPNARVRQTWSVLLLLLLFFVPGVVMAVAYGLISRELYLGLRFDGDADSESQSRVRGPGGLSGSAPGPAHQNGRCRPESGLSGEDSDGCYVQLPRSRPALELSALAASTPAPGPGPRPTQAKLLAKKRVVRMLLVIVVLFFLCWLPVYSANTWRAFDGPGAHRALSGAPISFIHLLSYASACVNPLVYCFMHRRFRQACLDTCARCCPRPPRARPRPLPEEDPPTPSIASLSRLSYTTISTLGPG
Protocol: (§1) Screening of the novel compounds according to the present invention to determine biological activity and obtain an IC50 value for them (in order to identify significant CCK-antagonism) is accomplished using an ^125 I-CCK receptor binding assay and in vitro isolated tissue preparations. These tests involve the following:
(§2) CCK Receptor Binding (brain) Method
(§3) CCK-33 is radiolabeled and the binding is performed according to the description for the pancreas method, with modifications according to Saito et al., J. Neurochem., 37, 483-490, 1981.
(§4) Male Hartley guinea pigs (300-500 g) are sacrificed by decapitation, and the brains are removed and placed in ice-cold 50 mM Tris HCl (Trizma-7.4) [pH 7.4 at 25° C.]. The cerebral cortex is dissected and used as a receptor source and each gram of fresh guinea pig brain tissue is homogenized in 10 ml of Tris/Trizma buffer with a Brinkman polytron PT-10. The homogenates are centrifuged at 42,000 g for 15 minutes, then the resulting pellets are resuspended in 80 volumes of binding assay buffer (10 mM N-2-hydroxyethyl-piperazine-N'-2-ethanesulfonic acid (HEPES), 5 mM MgCl2, 1 mM ethylene glycol-bis(β-amino-ethyl-ether-N,N'-tetraacetic acid (EGTA), 0.4% BSA and 0.25 mg/ml bacitracin, pH 6.5).
(§5) The remainder of the inding assay method is as described for the pancreas method, except that the reaction mixtures are incubated at 25° C. for 2 hours before […].
(§6) Representative formula I compounds listed were tested as CCK-antagonists (in I-CCK-8 pancreas and ^125 I-CCK Brain assays) with results, as tabulated in the following table.

[2] = target: T2, CCK receptor (pancreas) (Rattus norvegicus, UniProt P30551); assay: CCK Receptor Binding (pancreas); parameters: species or system rat (male Sprague-Dawley); settings: for IC50: rat pancreas membranes, 125I-CCK-33, 37° C., 30 minutes, read-out: I-CCK-8 Pancreas IC50
T2 construct: The whole pancreas of a male Sprague-Dawley rat; from tissue; host or cells: whole pancreas of male Sprague-Dawley rat, washed membrane suspension
T2 sequence (P30551 1-444): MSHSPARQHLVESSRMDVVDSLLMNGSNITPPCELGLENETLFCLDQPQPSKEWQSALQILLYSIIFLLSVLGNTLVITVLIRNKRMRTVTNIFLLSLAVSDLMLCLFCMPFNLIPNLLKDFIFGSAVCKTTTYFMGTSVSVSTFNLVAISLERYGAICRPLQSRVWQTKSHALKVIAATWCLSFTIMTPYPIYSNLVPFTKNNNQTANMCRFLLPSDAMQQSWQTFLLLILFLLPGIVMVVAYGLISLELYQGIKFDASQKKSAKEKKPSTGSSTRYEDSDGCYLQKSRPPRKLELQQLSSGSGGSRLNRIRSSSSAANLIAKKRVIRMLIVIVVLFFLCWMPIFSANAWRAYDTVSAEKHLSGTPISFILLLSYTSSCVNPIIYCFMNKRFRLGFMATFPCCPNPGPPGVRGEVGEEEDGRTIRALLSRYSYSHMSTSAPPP
Source text: as §1
CCK Receptor Binding (pancreas) Method
CCK-33 is radiolabeled with ^125 I-Bolton Hunter reagent (2000 Ci/mmole), as described by Sankara et al. (J. Biol. Chem., 254, 9349-9351, 1979). Receptor binding is performed according to Innis and Snyder (Proc. Natl. Acad. Sci., 77, 6917-6921, 1980), with the minor modification of adding the additional protease inhibitors, phenylmethane sulfonyl fluoride and o-phenanthroline, which have no effect on the ^125 I-CCK receptor binding assay.
The whole pancreas of a male Sprague-Dawley rat (200-350 g), which has been sacrificed by decapitation, is dissected free of fat tissue and homogenized in 20 volumes of ice-cold 50 mM Tris HCl (pH 7.7 at 25° C.) with a Brinkman Polytron PT-10. The homogenates are centrifuged at 48,000 g for 10 minutes, then the resulting pellets are resuspended in Tris Buffer, centrifuged as above, and resuspended in 200 volumes of binding assay buffer (50 mM Tris HCl, pH 7.7 at 25° C., 5 mM dithiothreitol, 0.1 mM bacitracin, 1.2 mM phenylmethane sulfonyl fluoride and 0.5 mM o-phenanthroline).
For the binding assay, 25 μl of buffer (for total binding), or unlabeled CCK-8 sulfate sufficient to give a final concentration of 1 μM of CCK-8 (for nonspecific binding), or the compounds of the formula of the compounds according to the instant invention (for determination of antagonism to ^125 I-CCK binding) and 25 μl of ^125 I-CCK-33 (30,000-40,000 cpm), are added to 450 μl of the membrane suspensions in microfuge tubes. All assays are run in duplicate or triplicate, and the reaction mixtures are incubated at 37° C. for 30 minutes and centrifuged in a Beckman Microfuge (4 minutes) immediately after adding 1 ml of ice-cold incubation buffer. The supernatant is aspirated and discarded, and the pellets are counted with a Beckman Gamma 5000.
as §6

[3] = system: CCK receptor (brain, cerebral cortex); assay: CCK Receptor Binding (brain); parameters: species or system guinea pig (male Hartley); settings: in words, comment on Table 1 (pancreas vs brain); especially vs formula Ia and Example 13
Protocol: as §1, §2, §3, §4, §5, §6

| IC50 [1] [µM] | IC50 [2] [µM] | potency compared with the formula Ia compound ([2]; in words, comment on Table 1 (pancreas and brain binding)) | selectivity compared with the other compounds [3] | SMILES |
| --- | --- | --- | --- | --- |
| 110 | 76 | – | – | O=C1Nc2ccccc2-c2nc3ccccc3c(=O)n2[C@H]1Cc1c[nH]c2ccccc12 [*, 7β-[(1H-indol-3-yl)methyl]quinazoline(3,2-D)(1,4)benzodiazepin-6,9(5H,7H)-dione, reference compound] |
| 100 | 67 | improved | – | O=C1Nc2ccccc2-c2nc3ccccc3c(=O)n2[C@@H]1Cc1c[nH]c2ccccc12 [Example 13, 7α-[(1H-indol-3-yl)methyl]quinazolino(3,2-D)-1,4-benzodiazepin-6,9(5H,7H)-dione hydrate] |
| 100 | 100 | – | – | C[C@H]1C(=O)Nc2ccccc2-c2nc3ccccc3c(=O)n21 [Example 14, 7β-methylquinazolino(3,2-D)(1,4)benzodiazepin-6,9-(5H,7H)-dione] |
| 100 | 100 | – | – | O=C1Cn2c(nc3ccccc3c2=O)-c2ccccc2N1 [Example 15, quinazolino(3,2-D)(1,4)benzodiazepin-6,9(5H,7H)-dione] |
| 100 | 100 | – | – | O=C1Nc2ccccc2-c2nc3ccccc3c(=O)n2[C@H]1Cc1ccc(O)cc1 [Example 16, 7β-[(4-hydroxyphenyl)methyl]quinazolino(3,2-D)(1,4)-benzodiazepin-6,9(5H,7H)-dione hydrate] |
| 51 | 104 | – | substantial change in selectivity | CN1C(=O)[C@H](Cc2c[nH]c3ccccc23)n2c(nc3ccccc3c2=O)-c2ccccc21 [Example 19, 5-methyl-7β-[(1H-indol-3-yl)methyl]quinazolino(3,2-D)(1,4)benzodiazepin-6,9(5H,7H)-dione hydrate] |
